# Results: patent US10800782B2, “Inhibitors of cellular metabolic processes” (Agios Pharmaceuticals, Inc., priority 2016, dated 2020)
# Target: T1, MAT2A (Homo sapiens, UniProt P31153)
# T1 construct: His6; made in house; host or cells: SF9 insect cells
# Experiment: MAT2A biochemical assay (colorimetric inorganic phosphate detection, PiColorLock)
# Conditions: recombinant His6-tagged MAT2A 1 μg/ml; 60 minutes preincubation at 25° C.; L-Met 80 μM, ATP 100 μM; 60 minutes reaction; read at 623 nm; read-out: MAT2A Inhibition Score
# Protocol: In the reaction catalyzed by MAT2A enzyme, L-Met and ATP were converted to SAM, inorganic phosphate, and inorganic diphosphate. […] The concentration of malachite green phosphomolybdate produced in the detection reaction is thus directly related to the quantity of product produced by the MAT2A enzyme. Multiple commercial kits exist for this method of phosphate detection and quantification, such as PiColorLock Gold (Innova Biosciences). Typical reaction was performed in 50 μl final volume, containing buffer (Tris, pH 8.0, 50 mM KCl, 15 mM MgCl2, 300 uM EDTA, bovine serum albumin at 0.005% w/v) and 1 μg/ml MAT2A. Compounds were added in 1 μl of DMSO at the desired concentration; a typical dose response curve contained ten points with three-fold dilution between compound concentrations. […] The reaction was allowed to proceed for 60 minutes at room temperature then halted by the addition of 13 μl of PiColor Lock reagent. After a further 5 minutes of incubation at room temperature, […] of PiColor Stabilizer was added and the reactions were further incubated at 25° C. for 25 minutes. […] Recombinant MAT2A protein was expressed in SF9 insect cells and purified by metal chelate affinity chromatography, using methods well known in the art. After expression of His6-tagged MAT2A cells were disrupted by 4 passes through an M-Yl 10 Micro fluidizer (Microfluidics) set to 500 psi, and then centrifuged at 22,000 rcf for 20 min at 4° C. The supernatant was harvested and loaded at 15 cm/h on a Histrap FF 5*1 ml column (GE) which was equilibrated with 50 mM Tris, 500 mM NaCl, pH7.4. Host cell contaminants were removed by washing the column with equilibration buffer followed by equilibration buffer containing 20 mM imidazole and 60 mM imidazole to baseline. MAT2A protein was eluted by the addition of buffer containing 250 mM imidazole, dialized into 50 mM NaCl, 50 mM Tris, pH 7.4, flash frozen in liquid nitrogen, and stored at −80° C. until use.
# T1 sequence (P31153 whole entry): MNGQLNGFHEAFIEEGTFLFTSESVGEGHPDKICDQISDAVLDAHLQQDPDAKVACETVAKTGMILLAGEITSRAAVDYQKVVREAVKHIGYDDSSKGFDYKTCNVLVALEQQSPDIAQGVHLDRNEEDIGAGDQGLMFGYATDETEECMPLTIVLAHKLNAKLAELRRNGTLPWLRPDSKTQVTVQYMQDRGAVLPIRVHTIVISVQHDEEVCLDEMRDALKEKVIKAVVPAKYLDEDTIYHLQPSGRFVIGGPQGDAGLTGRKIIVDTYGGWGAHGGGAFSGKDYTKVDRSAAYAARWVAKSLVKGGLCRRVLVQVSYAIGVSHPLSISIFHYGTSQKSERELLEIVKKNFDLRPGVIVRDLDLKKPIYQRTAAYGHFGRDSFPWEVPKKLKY
row,SMILES,IC50 [nM]
1,"COc1ccc(-c2c(Nc3cnccn3)[nH]c3c(-c4ccccc4)c(-c4ccccc4)nn3c2=O)cc1 [Compound 126, 6-(4-methoxyphenyl)-2,3-diphenyl-5-(pyrazin-2-ylamino)pyrazolo[1,5-a]pyrimidin-7(4H)-one]",< 100
2,"O=c1c(-c2ccc3nccnc3c2)c(Nc2ccon2)[nH]c2c(C3=CCCCC3)c(-c3ccccc3)nn12 [Compound 177, 3-(cyclohex-1-en-1-yl)-5-(isoxazol-3-ylamino)-2-phenyl-6-(quinoxalin-6-yl)pyrazolo[1,5-a]pyrimidin-7(4H)-one]",< 100
3,"COc1ccc(-c2c(Nc3ccc(F)cn3)[nH]c3c(-c4ccccc4)c(-c4ccccc4)nn3c2=O)cc1 [Compound 105, 5-((5-fluoropyridin-2-yl)amino)-6-(4-methoxyphenyl)-2,3-diphenylpyrazolo[1,5-a]pyrimidin-7(4H)-one]",< 100
4,"COc1ccc(-c2c(Nc3ncncn3)[nH]c3c(C4=CCCCC4)c(-c4ccccc4)nn3c2=O)cc1 [Compound 163, 5-((1,3,5-triazin-2-yl)amino)-3-(cyclohex-1-en-1-yl)-6-(4-methoxyphenyl)-2-phenylpyrazolo[1,5-a]pyrimidin-7(4H)-one]",< 100
5,"COc1ccc(-c2c(Nc3cnc(N)cn3)[nH]c3c(C4=CCCCC4)c(-c4ccccc4)nn3c2=O)cc1 [Compound 160, 5-((5-aminopyrazin-2-yl)amino)-3-(cyclohex-1-en-1-yl)-6-(4-methoxyphenyl)-2-phenylpyrazolo[1,5-a]pyrimidin-7(4H)-one]",< 100
6,"O=c1c(-c2ccc3ncccc3c2)c(Nc2ccncn2)[nH]c2c(-c3ccccc3)c(-c3ccccc3)nn12 [Compound 169, 2,3-diphenyl-5-(pyrimidin-4-ylamino)-6-(quinolin-6-yl)pyrazolo[1,5-a]pyrimidin-7(4H)-one]",< 100
7,"COc1ccc(-c2c(CN)[nH]c3c(-c4ccccc4)c(-c4ccccc4)nn3c2=O)cc1 [Compound 222, 5-(aminomethyl)-6-(4-methoxyphenyl)-2,3-diphenylpyrazolo[1,5-a]pyrimidin-7(4H)-one]",< 100
8,"CNc1ncnc(Nc2[nH]c3c(-c4ccccc4)c(-c4ccccc4)nn3c(=O)c2-c2ccc(OC)cc2)n1 [Compound 135, 6-(4-methoxyphenyl)-5-((4-(methylamino)-1,3,5-triazin-2-yl)amino)-2,3-diphenylpyrazolo[1,5-a]pyrimidin-7(4H)-one]",< 100
9,"COc1ccc(-c2c(Nc3cnc(N)cn3)[nH]c3c(-c4ccccc4)c(-c4ccccc4)nn3c2=O)cc1 [Compound 130, 5-((5-aminopyrazin-2-yl)amino)-6-(4-methoxyphenyl)-2,3-diphenylpyrazolo[1,5-a]pyrimidin-7(4H)-one]",< 100
10,"COc1ccc(-c2c(Nc3nnc(N)s3)[nH]c3c(-c4ccccc4)c(-c4ccccc4)nn3c2=O)cc1 [Compound 145, 5-((5-amino-1,3,4-thiadiazol-2-yl)amino)-6-(4-methoxyphenyl)-2,3-diphenylpyrazolo[1,5-a]pyrimidin-7(4H)-one]",< 100
11,"O=c1c(-c2ccc3ncccc3c2)c(Nc2cnccn2)[nH]c2c(C3=CCCCC3)c(-c3ccccc3)nn12 [Compound 175, 3-cyclohexenyl-2-phenyl-5-(pyrazin-2-ylamino)-6-(quinolin-6-yl)pyrazolo[1,5-a]pyrimidin-7(4H)-one]",< 100
12,"COc1ccc(-c2c(Nc3ncccn3)[nH]c3c(-c4ccccc4)c(-c4ccccc4)nn3c2=O)cc1 [Compound 121, 6-(4-methoxyphenyl)-2,3-diphenyl-5-(pyrimidin-2-ylamino)pyrazolo[1,5-a]pyrimidin-7(4H)-one]",< 100
13,"COc1ccc(-c2c(Nc3cccc(F)n3)[nH]c3c(-c4ccccc4)c(-c4ccccc4)nn3c2=O)cc1 [Compound 110, 5-((6-fluoropyridin-2-yl)amino)-6-(4-methoxyphenyl)-2,3-diphenylpyrazolo[1,5-a]pyrimidin-7(4H)-one]",< 100
14,"COc1ccc(-c2c(Nc3cccnn3)[nH]c3c(C4=CCCCC4)c(-c4ccccc4)nn3c2=O)cc1 [Compound 157, 3-(cyclohex-1-en-1-yl)-6-(4-methoxyphenyl)-2-phenyl-5-(pyridazin-3-ylamino)pyrazolo[1,5-a]pyrimidin-7(4H)-one]",< 100

# Next, values leading:
row,IC50 [nM],SMILES
1,< 100,"Cc1[nH]c2c(C3=CCCCC3)c(-c3ccccc3)nn2c(=O)c1-c1ccc2ncccc2c1 [Compound 216, 3-(cyclohex-1-en-1-yl)-5-methyl-2-phenyl-6-(quinolin-6-yl)pyrazolo[1,5-a]pyrimidin-7(4H)-one]"
2,< 100,"NC(=O)NCc1[nH]c2c(-c3ccccc3)c(-c3ccccc3)nn2c(=O)c1-c1ccc2ncccc2c1 [Compound 235, 1-((7-oxo-2,3-diphenyl-6-(quinolin-6-yl)-4,7-dihydropyrazolo[1,5-a]pyrimidin-5-yl)methyl)urea]"
3,< 100,"O=c1c(-c2ccc(O)cc2)c(O)[nH]c2c(-c3ccccc3)c(-c3ccccc3)nn12 [Compound 273, 5-hydroxy-6-(4-hydroxyphenyl)-2,3-diphenylpyrazolo[1,5-a]pyrimidin-7(4H)-one]"
4,< 100,"COc1ccc(-c2c(C)n(C)c3c(N4CCCCC4)c(-c4ccccc4)nn3c2=O)cc1 [Compound 269, 6-(4-methoxyphenyl)-4,5-dimethyl-2-phenyl-3-(piperidin-1-yl)pyrazolo[1,5-a]pyrimidin-7(4H)-one]"
5,< 100,"COc1ccc(-c2c(C)[nH]c3c(N4CCC(F)(F)C4)c(-c4ccccc4)nn3c2=O)cc1 [Compound 272, 3-(3,3-difluoropyrrolidin-1-yl)-6-(4-methoxyphenyl)-5-methyl-2-phenylpyrazolo[1,5-a]pyrimidin-7(4H)-one]"
6,1000 to 10000,"O=C(Nc1[nH]c2c(-c3ccccc3)c(-c3ccccc3)nn2c(=O)c1-c1ccc2ncccc2c1)C1CC1 [Compound 326, N-(7-oxo-2,3-diphenyl-6-(quinolin-6-yl)-4,7-dihydropyrazolo[1,5-a]pyrimidin-5-yl)cyclopropanecarboxamide]"
7,< 100,"Cc1[nH]c2c(-c3ccccc3)c(-c3ccc(O)cc3)nn2c(=O)c1-c1ccc2ncccc2c1 [Compound 242, 2-(4-hydroxyphenyl)-5-methyl-3-phenyl-6-(quinolin-6-yl)pyrazolo[1,5-a]pyrimidin-7(4H)-one]"
8,100 to 1000,"O=c1c(-c2ccc3ncccc3c2)c(Cc2ncn[nH]2)[nH]c2c(-c3ccccc3)c(-c3ccccc3)nn12 [Compound 321, 5-((1H-1,2,4-triazol-5-yl)methyl)-2,3-diphenyl-6-(quinolin-6-yl)pyrazolo[1,5-a]pyrimidin-7(4H)-one]"
9,< 100,"COc1ccc(-c2c(Nc3ccccn3)[nH]c3c(-c4cccc(Cl)c4)c(-c4ccccc4)nn3c2=O)cc1 [Compound 178, 3-(3-chlorophenyl)-6-(4-methoxyphenyl)-2-phenyl-5-(pyridin-2-ylamino)pyrazolo[1,5-a]pyrimidin-7(4H)-one]"
10,< 100,"CC(=O)NCc1[nH]c2c(-c3ccccc3)c(-c3ccccc3)nn2c(=O)c1-c1ccc2ncccc2c1 [Compound 228, N-((7-oxo-2,3-diphenyl-6-(quinolin-6-yl)-4,7-dihydropyrazolo[1,5-a]pyrimidin-5-yl)methyl)acetamide]"
11,< 100,"COc1ccc(-c2c(N/C(N)=N/O)[nH]c3c(-c4ccccc4)c(-c4ccccc4)nn3c2=O)cc1 [Compound 200, (E)-2-hydroxy-1-(6-(4-methoxyphenyl)-7-oxo-2,3-diphenyl-4,7-dihydropyrazolo[1,5-a]pyrimidin-5-yl)guanidine]"
12,< 100,"COc1ccc(-c2c(C)[nH]c3c(N4CCCCC4)c(-c4ccccc4)nn3c2=O)cn1 [Compound 358, 6-(6-methoxypyridin-3-yl)-5-methyl-2-phenyl-3-(piperidin-1-yl)pyrazolo[1,5-a]pyrimidin-7(4H)-one]"
13,< 100,"O=c1c(-c2ccc3ncccc3c2)c(Nc2cc[nH]n2)[nH]c2c(-c3ccccc3)c(-c3ccccc3)nn12 [Compound 187, 5-((1H-pyrazol-3-yl)amino)-2,3-diphenyl-6-(quinolin-6-yl)pyrazolo[1,5-a]pyrimidin-7(4H)-one]"
14,100 to 1000,"COc1ccc(-c2c(CNC(=O)[C@@H](N)C(C)C)[nH]c3c(-c4ccccc4)c(-c4ccccc4)nn3c2=O)cc1 [Compound 340, (S)-2-amino-N-((6-(4-methoxyphenyl)-7-oxo-2,3-diphenyl-4,7-dihydropyrazolo[1,5-a]pyrimidin-5-yl)methyl)-3-methylbutanamide]"
15,100 to 1000,"Cc1[nH]c2c(N3CCCCC3)c(-c3ccccc3)nn2c(=O)c1N1CCOCC1 [Compound 302, 5-methyl-6-morpholino-2-phenyl-3-(piperidin-1-yl)pyrazolo[1,5-a]pyrimidin-7(4H)-one]"
